According to patent publication US12668845B2, “Methods for predicting drug responsiveness in cancer patients” (Allarity Therapeutics Europe ApS, priority 2018, dated 2026):

How the values were obtained:
IM-9 = experiment: Growth inhibition of cell lines treated with 2X-121; format: cell-based; settings: Homo sapiens; cell line IM-9, origin B lymphoblast; read-out: Measured growth inhibition IC50
HCT-116 = experiment: as above; format: cell-based; settings: Homo sapiens; cell line HCT-116, origin Colon; read-out: Measured growth inhibition IC50
HEC-1A = experiment: as above; format: cell-based; settings: Homo sapiens; cell line HEC-1A, origin Endometrial; read-out: Measured growth inhibition IC50
HEC-151 = experiment: as above; format: cell-based; settings: cell line HEC-151, origin Endometrial; read-out: Measured growth inhibition IC50
DB = experiment: as above; format: cell-based; settings: Homo sapiens; cell line DB, origin DLBCL (GC); read-out: Measured growth inhibition IC50
NCI-H82 = experiment: as above; format: cell-based; settings: Homo sapiens; cell line NCI-H82, origin SCLC; read-out: Measured growth inhibition IC50
MFE-280 = experiment: as above; format: cell-based; settings: Homo sapiens; cell line MFE-280, origin Endometrial; read-out: Measured growth inhibition IC50
RPMI-8226 = experiment: as above; format: cell-based; settings: Homo sapiens; cell line RPMI-8226, origin Myeloma; read-out: Measured growth inhibition IC50
NCI-H69 = experiment: as above; format: cell-based; settings: Homo sapiens; cell line NCI-H69, origin SCLC; read-out: Measured growth inhibition IC50
Hs578T = experiment: as above; format: cell-based; settings: Homo sapiens, Hs-578T; cell line Hs578T, origin Breast; read-out: Measured growth inhibition IC50
HEC-50B = experiment: as above; format: cell-based; settings: cell line HEC-50B, origin Endometrial; read-out: Measured growth inhibition IC50
Namalwa = experiment: as above; format: cell-based; settings: cell line Namalwa, origin Burkitts lymphoma; read-out: Measured growth inhibition IC50
MC/CAR = experiment: as above; format: cell-based; settings: cell line MC/CAR, origin Myeloma; read-out: Measured growth inhibition IC50
MDA-MB-157 = experiment: as above; format: cell-based; settings: Homo sapiens; cell line MDA-MB-157, origin Breast; read-out: Measured growth inhibition IC50
ARH-77 = experiment: as above; format: cell-based; settings: Homo sapiens; cell line ARH-77, origin Myeloma; read-out: Measured growth inhibition IC50
HCT-15 = experiment: as above; format: cell-based; settings: Homo sapiens; cell line HCT-15, origin Colon; read-out: Measured growth inhibition IC50
KG-1 = experiment: as above; format: cell-based; settings: Homo sapiens; cell line KG-1, origin AML; read-out: Measured growth inhibition IC50
T47D = experiment: as above; format: cell-based; settings: Homo sapiens; cell line T47D, origin Breast; read-out: Measured growth inhibition IC50
Pfeiffer = experiment: as above; format: cell-based; settings: Homo sapiens; cell line Pfeiffer, origin DLBCL (GC); read-out: Measured growth inhibition IC50
MDA-MB-436 = experiment: as above; format: cell-based; settings: Homo sapiens; cell line MDA-MB-436, origin Breast; read-out: Measured growth inhibition IC50
HEC-1B = experiment: as above; format: cell-based; settings: Homo sapiens; cell line HEC-1B, origin Endometrial; read-out: Measured growth inhibition IC50
HCC1143 = experiment: as above; format: cell-based; settings: Homo sapiens; cell line HCC1143, origin Breast; read-out: Measured growth inhibition IC50
SR = experiment: as above; format: cell-based; settings: Homo sapiens; cell line SR, origin B cell lymphoma; read-out: Measured growth inhibition IC50
NCI-H209 = experiment: as above; format: cell-based; settings: Homo sapiens; cell line NCI-H209, origin SCLC; read-out: Measured growth inhibition IC50
Jeko-1 = experiment: as above; format: cell-based; settings: Homo sapiens; cell line Jeko-1, origin MCL; read-out: Measured growth inhibition IC50
MV-4-11 = experiment: as above; format: cell-based; settings: Homo sapiens, MV4-11; cell line MV-4-11, origin AML; read-out: Measured growth inhibition IC50
[1] = test system: P-glycoprotein expressing cells; settings: cited from earlier work
SF-295 = experiment: Growth inhibition of cell lines treated with 2X-121; format: cell-based; settings: Homo sapiens; cell line SF-295, origin GBM; read-out: Measured growth inhibition IC50
U266 = experiment: as above; format: cell-based; settings: Homo sapiens, U-266; cell line U266, origin Myeloma; read-out: Measured growth inhibition IC50
A549 = experiment: as above; format: cell-based; settings: Homo sapiens; cell line A549, origin NSCLC; read-out: Measured growth inhibition IC50
SNU-423 = experiment: as above; format: cell-based; settings: Homo sapiens; cell line SNU-423, origin HCC; read-out: Measured growth inhibition IC50
P-glycoprotein = P-glycoprotein (Homo sapiens, UniProt P08183); settings: cited from earlier work
SNG-M = experiment: Growth inhibition of cell lines treated with 2X-121; format: cell-based; settings: cell line SNG-M, origin Endometrial; read-out: Measured growth inhibition IC50
HEC-1 = experiment: as above; format: cell-based; settings: Homo sapiens; cell line HEC-1, origin Endometrial; read-out: Measured growth inhibition IC50

P-glycoprotein, sequence (P08183 whole entry): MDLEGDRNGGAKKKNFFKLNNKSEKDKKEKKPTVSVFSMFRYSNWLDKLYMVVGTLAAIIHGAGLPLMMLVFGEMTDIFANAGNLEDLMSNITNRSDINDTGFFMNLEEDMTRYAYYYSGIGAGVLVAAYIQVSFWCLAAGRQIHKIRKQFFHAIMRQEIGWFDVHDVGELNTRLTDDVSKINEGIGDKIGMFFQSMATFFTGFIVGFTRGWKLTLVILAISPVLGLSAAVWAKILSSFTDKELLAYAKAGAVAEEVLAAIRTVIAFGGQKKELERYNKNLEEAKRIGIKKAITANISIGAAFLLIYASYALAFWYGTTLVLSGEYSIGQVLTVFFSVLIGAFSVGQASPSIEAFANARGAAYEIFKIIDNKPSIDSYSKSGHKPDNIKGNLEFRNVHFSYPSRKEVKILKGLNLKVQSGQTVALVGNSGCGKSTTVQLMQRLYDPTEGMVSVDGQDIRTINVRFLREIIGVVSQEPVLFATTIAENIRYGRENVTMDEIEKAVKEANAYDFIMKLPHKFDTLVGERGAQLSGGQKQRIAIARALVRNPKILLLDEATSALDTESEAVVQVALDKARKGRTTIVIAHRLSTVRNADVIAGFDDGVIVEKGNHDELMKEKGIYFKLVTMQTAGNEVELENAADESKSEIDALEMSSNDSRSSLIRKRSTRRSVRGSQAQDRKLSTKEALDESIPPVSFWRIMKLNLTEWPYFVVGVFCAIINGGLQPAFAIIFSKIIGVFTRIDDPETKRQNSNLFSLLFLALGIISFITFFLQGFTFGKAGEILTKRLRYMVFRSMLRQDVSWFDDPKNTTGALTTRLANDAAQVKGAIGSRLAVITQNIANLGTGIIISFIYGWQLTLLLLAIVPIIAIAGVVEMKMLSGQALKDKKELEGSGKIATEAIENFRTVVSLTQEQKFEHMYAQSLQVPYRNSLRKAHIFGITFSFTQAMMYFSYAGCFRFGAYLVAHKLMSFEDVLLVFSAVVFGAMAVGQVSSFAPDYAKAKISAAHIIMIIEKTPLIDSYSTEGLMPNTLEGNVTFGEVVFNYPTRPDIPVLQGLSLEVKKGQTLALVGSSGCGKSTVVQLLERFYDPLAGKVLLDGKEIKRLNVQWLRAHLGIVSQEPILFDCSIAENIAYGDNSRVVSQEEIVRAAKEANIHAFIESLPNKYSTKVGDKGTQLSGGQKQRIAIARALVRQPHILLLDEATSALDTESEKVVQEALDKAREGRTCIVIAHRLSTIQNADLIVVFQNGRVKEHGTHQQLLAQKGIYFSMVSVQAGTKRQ

O=c1[nH]nc2c3c(cccc13)N=C(CN1Cc3ccccc3C1)N2 [2X-121, 8-(isoindolin-2-ylmethyl)-2,9-dihydro-3H-pyridazino[3,4,5-de]quinazolin-3-one]
IC50 (IM-9): 2100 nM | IC50 (HCT-116): 1700 nM | IC50 (HEC-1A): 2960 nM | IC50 (HEC-151): 1440 nM | IC50 (DB): 1600 nM | IC50 (NCI-H82): 470 nM | IC50 (MFE-280): 770 nM | IC50 (RPMI-8226): 9300 nM | IC50 (NCI-H69): 1330 nM | IC50 (Hs578T): 9600 nM | IC50 (HEC-50B): 3450 nM | IC50 (Namalwa): 2500 nM | IC50 (MC/CAR): 2300 nM | IC50 (MDA-MB-157): 6800 nM | IC50 (ARH-77): 3200 nM | IC50 (HCT-15): 2200 nM | IC50 (KG-1): 2000 nM | IC50 (T47D): 7800 nM | IC50 (Pfeiffer): 710 nM | IC50 (MDA-MB-436): 190 nM | IC50 (HEC-1B): 7270 nM | IC50 (HCC1143): 3700 nM | IC50 (SR): 260 nM | IC50 (NCI-H209): 620 nM | IC50 (Jeko-1): 1900 nM | IC50 (MV-4-11): 950 nM | activity in P-glycoprotein expressing cells [1]: active | IC50 (SF-295): 2600 nM | IC50 (U266): 6700 nM | IC50 (A549): 2200 nM | IC50 (SNU-423): 19000 nM | substrate for P-glycoprotein (P-glycoprotein): not a substrate for P-glycoprotein | IC50 (SNG-M): 1360 nM | IC50 (HEC-1): 1280 nM
